Several values for one entry are separate records, joined by “and”; a condition that tells them apart may be missing. Equal values may be shown once. Entries after “also recorded” stand apart in the source; their conditions may differ. No end group written: not given here.
Assays:
TLR4 = experiment: Inhibition of TLR4 signaling in thioglycollate-elicited mouse macrophages (effective concentration, overall inhibitory activity); assay type: cell-based; conditions: for Effective conc.: TLR4 pathway, thioglycollate-elicited mouse macrophages
Procedure: C57BL/6J mice were obtained from The Jackson Laboratory (Bar Harbor, Me.). Primary peritoneal macrophages were obtained by peritoneal lavage 4 days after intraperitoneal injection (3 ml) of sterile 3% thioglycolate broth. Washed cells were resuspended in RPMI 1640 which contained 2% FBS, 1% penicillin:streptomycin and 2 mM L-glutamine. After plating, cells were incubated overnight at 37° C. and then washed with PBS to remove non-adherent cells. Cells were exposed to peptides 30 min before stimulation with a TLR agonist.
TIRAP/Mal functions to facilitate MyD88 recruitment to the activated TLR4 and TLR2, presumably through a simultaneous interaction with receptor and MyD88 TIR domains. Therefore, multiple TIR:TIR interaction sites are expected in TIRAP TIR. The decoy peptide approach was used to obtain leads on the functional protein-protein interfaces within TIRAP/Mal, a TLR adapter protein. To this end, eleven TIRAP TIR-derived decoy peptides were designed to be structurally homologous to the TLR4 TIR-derived decoy peptides used previously (1), so that each peptide represents a non-fragmented patch of the TIRAP TIR surface, with the entire domain encompassed by the set of peptides. The TIRAP TIR-derived decoy peptides were synthesized in tandem with the cell-permeating sequence of Antennapedia homeodomain (21) and each peptide was tested for the ability to inhibit TLR4 and TLR2 signaling in primary mouse macrophages. Peptide sequences and the structural regions they represent are shown in reference (30).
C57BL/6J mice were obtained from The Jackson Laboratory (BarHarbor, Me.). Harvesting, culturing, and stimulation of peritoneal macrophages were described in previous publications (1, 18, 19). Escherichia coli K235 LPS (34) was used at the final concentration of 100 ng/ml. The 2,3-bis(palmitoyloxy)-(2-RS)-propyl-N-palmitoyl-(R)-Cys-Ser-Lys4-OH (P3C) and S[2,3-bis(palmitoyloxy)-(2-RS)-propyl]-[R]-Cys-Ser-Lys4-OH (P2C) (EMC Microcollections, Tubingen, Germany) were used at 500 and 50 ng/ml, respectively. Oligonucleotide (ODN) 1668 and low m.w. polyinosinic-polycytidylic acid [poly(I:C)] in complex with LyoVec were obtained from InvivoGen; these agonists were used at 2.5 μM and 400 ng/ml, respectively.

C57BL/6J mice [1] = experiment: In vivo efficiency of decoy peptides (Table 1; LPS challenge in mice); set-up: species or system mouse
Procedure: FIG. 4. Effect of select TRAP decoy peptides on TNF-α and IL-6 in blood following an ip LPS challenge. C57BL/6J mice were injected with TR5, TR6, or TR7 peptide or mock-treated 1 hour before injection of purified E. coli LPS. Peptides and LPS were injected to mice intraperitonealy 10 nmol or 1 μg per gram of animal weight, correspondingly.
(§1) FIG. 10. […] (A-E) C57BL/6J mice were injected i.p. with purified Escherichia coli K235 LPS (1 μg/g) or PBS. Peptides (10 nmol/g of animal weight) were injected i.p. (A, B, D, E) or i.v. (C) 1 h before (A, B, and C) or 30 min after (D, E) i.p. injection of LPS. Data in panels A and D show plasma IL-6 and TNF-α levels measured 2 h after LPS challenge. Peptide TM8/9 was used as a non-inhibitory control peptide. Data represent the means±s.e.m. for 6-12 blood samples obtained in at least three independent experiments. *p<0.01. (F, G) C57BL/6J mice were challenged i.p. with a lethal LPS dose (17.5 μg/g). Peptides (10 nmol/g) were injected i.p. 1 h before LPS challenge. […] The statistical significance of changes in mortality and survival time was determined by the Mantel Cox log-rank test using GraphPad Prism software (Version 5.04). *p<0.01.
(§2) Eight-week-old C57BL/6J mice were injected with 1 or 17.5 μg/g animal weight of E. coli K235 LPS i.p. Peptides reconstituted in PBS were administered i.p. or i.v. Control groups received equivalent volume of solvent (PBS). The blood samples were collected 1, 2, 4, and 8 h, or 2, 8, and 24 h after LPS challenge. The plasma samples were obtained and kept frozen until TNF-α and IL-6 were measured by ELISA. Survival of animals was monitored every 6-16 h after LPS challenge. All animal experiments were carried out with institutional approval.

[2] = tested on: mouse peritoneal macrophages; conditions: 3-h incubation; data not shown
Procedure: A total of 5×10^4 mouse peritoneal macrophages was plated into 96-well tissue culture plates, incubated overnight, and treated with peptides for 3 h. After the treatment, cells were incubated with MTT at 0.5 mg/ml (Sigma-Aldrich) for 3 h. Fifty microliters DMSO was added to cells before reading OD at 540 nm.

C57BL/6J mice [3] = experiment: Plasma TNF-α and IL-6 after sublethal LPS challenge in C57BL/6J mice; assay type: in vivo, mouse
Procedure: as §1, §2
We next studied whether peptides identified as inhibitory in in vitro tests are effective in vivo. C57BL/6J mice were challenged i.p. with a sublethal LPS dose (1 μg/g animal weight), and plasma TNF-α and IL-6 levels were monitored for 8 h after the challenge. In the first series of experiments, we injected 10 nmol/g TM4 or TM6 i.p. 1 h before LPS challenge. The 10 nmol/g dose corresponds to 38, 41, and 32 mg/kg TM4, TM6, and TM4-ΔC, respectively.

C57BL/6J mice [4] = experiment: Survival after lethal LPS challenge in C57BL/6J mice; assay type: in vivo, mouse; conditions: LPS 17.5 μg/g i.p.
Procedure: as §1, §2
We next studied whether inhibitory peptides protect mice from a lethal LPS challenge. TR6, a previously described inhibitory peptide derived from the third helical region of TRAP (30), was also included in this study as an additional control. C57BL/6J mice were injected i.p. with 17.5 μg/g LPS. This dose induced 100% mortality in the control group (FIG. 10F). […] The peptide-treated survivors appeared active and healthy at the time the experiments were terminated, 7 d after injection of LPS.

MAPK (ERK, JNK, p38) = experiment: MAPK activation by peptide alone, macrophages without TLR agonist; assay type: cell-based, mouse; conditions: peptide alone; data not shown
Procedure: Neither TIRAP peptide activated ERK in cells incubated without a TLR agonist (not shown). […] The mechanism of this differential MAPK activation by select peptides, although interesting, is not understood at this time. Peptides TR9 and TR11 inhibited both ERK and JNK MAPKs (FIG. 1D). Peptide-induced inhibition of ERK persisted over a long period of time.
We next examined whether TRAM peptides inhibit the TLR4-mediated p38, ERK, and JNK MAPK activation. Murine macrophages pretreated with peptides for 30 min were challenged with LPS. Cell lysates were collected 30 min post-stimulation and analyzed for MAPK phosphorylation by Western analysis. Consistent with peptide effects on steady-state mRNA, both TM4 and TM6 inhibited activation of all three MAPKs (FIG. 5C). The inhibition of MAPKs by TM4 or TM6 was long lasting; it persisted for at least 1 h after LPS stimulation (data not shown). To characterize further the effects of TRAM peptides on MAPKs, murine macrophages were treated with TRAM peptides, but not challenged by LPS.

RQIKIWFQNRRMKWKKCLQDAIDHS [TF5-ΔC]
Effective conc. (TLR4): 20 µM
In vivo efficiency (C57BL/6J mice [1]): Yes, i.p.

RQIKIWFQNRRMKWKKENFLRDTWCNFQFY [TM6]
Cell viability (MTT) [2]: Neither inhibitory peptide affected cell viability in a significant way

RQIKIWFQNRRMKWKKIVFAEMPCG [TM4-ΔC]
Effective conc. (TLR4): 10 µM
Inhibitory activity of modified TM4 peptides on TLR4-driven MAPK activation and cytokine mRNA (FIG. 8) (TLR4; relative ranking among TM4 variants): close to that of TM4
In vivo efficiency (C57BL/6J mice [1]): yes, i.p.
Plasma TNF-α and IL-6 (C57BL/6J mice [3]; 10 nmol/g i.p. 30 min after LPS, 2 h after LPS or thereafter): markedly diminished
Circulating TNF-α and IL-6 (C57BL/6J mice [3]; 10 nmol/g i.p. 30 min after LPS, measured 1 h after LPS): did not affect
Circulating IL-6 and TNF-α levels (C57BL/6J mice [3]; 10 nmol/g i.v., LPS i.p., 8-h observation): significantly lowered
Efficiency with respect to circulating IL-6 at 4- or 8-h time points (C57BL/6J mice [3]; dose increased to 25 nmol/g): did not augment
LPS-induced systemic cytokine response in vivo (C57BL/6J mice [3]; sublethal LPS 1 μg/g, peptide 10 nmol/g): strongly suppress; also recorded: effectively suppress
Survival after lethal LPS challenge (C57BL/6J mice [4]; peptide 10 nmol/g i.p. 1 h before): rescued all animals and 10 of 10 and protect
Survival after lethal LPS challenge, therapeutic administration (C57BL/6J mice [4]; peptide i.p. 3 h after LPS): Five of seven

RQIKIWFQNRRMKWKKIVFAEMPCGRLHLQ [TM4]
Cell viability (MTT) [2]: Neither inhibitory peptide affected cell viability in a significant way

TM3: TRAM decoy peptide: Antennapedia sequence at N terminus of QNDFGIRPG (RQIKIWFQNRRMKWKKQNDFGIRPG)
p38 and ERK MAPK activation without LPS stimulation (MAPK (ERK, JNK, p38)): weakly activated

Source: patent US20130203649A1, “INHIBITORS OF TLR SIGNALING BY TARGETING TIR DOMAIN INTERFACES” (UNIVERSITY OF MARYLAND, BALTIMORE, priority 2012, published 2013)
